Data published in ChEMBL document CHEMBL1909046, “DrugMatrix in vitro pharmacology data”.

How the values were obtained:
[1] = target: T1, Alpha-1A adrenergic receptor (Rattus norvegicus, UniProt P43140); experiment: DRUGMATRIX: Alpha-1A adrenergic receptor radioligand binding (ligand: prazosin); assay type: cell membranes, Wistar, Submaxillary gland, Membrane; settings: Not Active = under 50% inhibition at 10 µM
T1 sequence (P43140 whole entry): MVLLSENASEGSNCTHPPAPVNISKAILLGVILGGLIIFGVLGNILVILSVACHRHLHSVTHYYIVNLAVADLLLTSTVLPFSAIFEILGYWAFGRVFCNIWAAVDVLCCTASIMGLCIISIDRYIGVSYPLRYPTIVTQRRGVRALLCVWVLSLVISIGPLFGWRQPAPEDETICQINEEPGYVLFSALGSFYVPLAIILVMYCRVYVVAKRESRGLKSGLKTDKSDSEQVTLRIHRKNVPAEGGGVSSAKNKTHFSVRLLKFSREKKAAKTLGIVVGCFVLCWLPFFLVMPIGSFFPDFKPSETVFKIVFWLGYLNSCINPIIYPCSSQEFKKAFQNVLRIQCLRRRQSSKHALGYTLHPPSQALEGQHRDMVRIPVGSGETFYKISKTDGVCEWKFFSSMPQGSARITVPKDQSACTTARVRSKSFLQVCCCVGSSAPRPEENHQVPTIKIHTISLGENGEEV

[2] = target: T2, Alpha-1B adrenergic receptor (Rattus norvegicus, UniProt P15823); experiment: DRUGMATRIX: Alpha-1B adrenergic receptor radioligand binding (ligand: prazosin); assay type: cell membranes, Wistar, Liver, Membrane; settings: Not Active = under 50% inhibition at 10 µM
T2 sequence (P15823 whole entry): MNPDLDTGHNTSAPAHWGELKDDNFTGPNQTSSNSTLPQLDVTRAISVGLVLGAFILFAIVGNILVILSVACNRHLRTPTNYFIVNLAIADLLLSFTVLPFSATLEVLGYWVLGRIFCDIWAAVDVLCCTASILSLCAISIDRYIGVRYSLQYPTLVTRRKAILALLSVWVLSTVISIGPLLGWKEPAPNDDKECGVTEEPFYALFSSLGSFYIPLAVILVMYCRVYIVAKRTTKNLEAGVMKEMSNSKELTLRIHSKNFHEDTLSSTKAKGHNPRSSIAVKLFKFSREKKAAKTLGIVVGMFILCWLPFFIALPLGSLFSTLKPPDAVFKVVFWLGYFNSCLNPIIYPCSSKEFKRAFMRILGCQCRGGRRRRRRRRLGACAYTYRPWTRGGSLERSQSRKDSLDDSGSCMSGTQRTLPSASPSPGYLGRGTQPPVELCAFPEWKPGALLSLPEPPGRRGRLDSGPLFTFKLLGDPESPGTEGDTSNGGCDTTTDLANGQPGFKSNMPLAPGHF

[3] = target: Sodium-dependent noradrenaline transporter (Homo sapiens, UniProt P23975); experiment: DRUGMATRIX: Norepinephrine Transporter radioligand binding (ligand: [125I] RTI-55); assay type: cell membranes, MDCK, Membrane; settings: Not Active = under 50% inhibition at 10 µM
Estrogen receptor = target: T3, Estrogen receptor (Homo sapiens, UniProt P03372); settings: sf9; note: in other assays of this panel Not Active means under 50% inhibition at 10 µM
T3 sequence (P03372 whole entry): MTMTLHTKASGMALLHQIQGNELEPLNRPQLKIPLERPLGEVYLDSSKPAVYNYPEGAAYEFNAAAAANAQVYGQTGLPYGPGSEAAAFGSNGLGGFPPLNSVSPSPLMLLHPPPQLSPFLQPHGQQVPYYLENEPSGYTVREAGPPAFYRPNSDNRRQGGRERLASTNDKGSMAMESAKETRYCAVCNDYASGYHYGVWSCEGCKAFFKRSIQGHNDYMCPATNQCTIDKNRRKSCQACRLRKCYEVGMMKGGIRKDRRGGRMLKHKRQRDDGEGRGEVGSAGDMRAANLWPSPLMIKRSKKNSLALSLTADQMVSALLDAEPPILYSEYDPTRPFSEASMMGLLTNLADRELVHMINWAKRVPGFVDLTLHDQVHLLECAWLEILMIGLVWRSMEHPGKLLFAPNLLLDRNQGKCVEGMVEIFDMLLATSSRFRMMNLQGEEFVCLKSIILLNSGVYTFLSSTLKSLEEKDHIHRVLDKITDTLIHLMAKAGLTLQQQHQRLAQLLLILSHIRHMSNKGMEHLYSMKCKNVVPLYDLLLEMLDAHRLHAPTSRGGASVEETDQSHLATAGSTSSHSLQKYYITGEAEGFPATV

[4] = target: T4, Muscarinic acetylcholine receptor M4 (Homo sapiens, UniProt P08173); assay type: cell membranes, CHO-K1, Membrane; note: in other assays of this panel Not Active means under 50% inhibition at 10 µM
T4 sequence (P08173 whole entry): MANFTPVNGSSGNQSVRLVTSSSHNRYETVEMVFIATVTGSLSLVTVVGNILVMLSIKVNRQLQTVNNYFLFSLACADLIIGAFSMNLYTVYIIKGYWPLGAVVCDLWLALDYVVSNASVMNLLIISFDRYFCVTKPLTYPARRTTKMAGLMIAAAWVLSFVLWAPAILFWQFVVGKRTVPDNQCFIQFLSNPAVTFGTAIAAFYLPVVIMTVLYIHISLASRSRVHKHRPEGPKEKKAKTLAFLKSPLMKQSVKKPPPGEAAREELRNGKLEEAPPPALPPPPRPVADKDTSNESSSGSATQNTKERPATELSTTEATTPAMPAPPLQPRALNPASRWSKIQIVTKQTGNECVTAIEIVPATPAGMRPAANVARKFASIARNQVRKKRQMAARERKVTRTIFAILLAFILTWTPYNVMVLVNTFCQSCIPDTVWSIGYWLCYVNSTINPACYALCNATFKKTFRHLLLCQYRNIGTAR

[5] = target: T5, Cysteinyl leukotriene receptor 1 (Homo sapiens, UniProt Q9Y271); assay type: cell membranes, CHO-K1, Membrane; settings: cho-k1; note: in other assays of this panel Not Active means under 50% inhibition at 10 µM
T5 sequence (Q9Y271 whole entry): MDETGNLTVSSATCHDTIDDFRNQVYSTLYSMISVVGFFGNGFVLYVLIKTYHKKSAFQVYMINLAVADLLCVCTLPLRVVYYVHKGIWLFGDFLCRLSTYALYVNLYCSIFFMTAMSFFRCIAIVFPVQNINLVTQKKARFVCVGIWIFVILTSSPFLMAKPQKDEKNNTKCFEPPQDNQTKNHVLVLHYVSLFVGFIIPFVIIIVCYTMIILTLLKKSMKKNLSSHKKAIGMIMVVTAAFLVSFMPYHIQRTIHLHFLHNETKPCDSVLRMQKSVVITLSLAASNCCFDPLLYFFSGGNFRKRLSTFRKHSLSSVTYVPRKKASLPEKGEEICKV

[6] = target: C-C chemokine receptor type 5 (Homo sapiens, UniProt P51681); assay type: cell membranes, HEK293, Membrane; settings: hek293; note: in other assays of this panel Not Active means under 50% inhibition at 10 µM
[7] = DRUGMATRIX: Nicotinic Acetylcholine radioligand binding (ligand: [125I] Epibatidine); assay type: cell membranes, Membrane; settings: imr-32; Not Active = under 50% inhibition at 10 µM

C-C chemokine receptor type 5, sequence (P51681 whole entry): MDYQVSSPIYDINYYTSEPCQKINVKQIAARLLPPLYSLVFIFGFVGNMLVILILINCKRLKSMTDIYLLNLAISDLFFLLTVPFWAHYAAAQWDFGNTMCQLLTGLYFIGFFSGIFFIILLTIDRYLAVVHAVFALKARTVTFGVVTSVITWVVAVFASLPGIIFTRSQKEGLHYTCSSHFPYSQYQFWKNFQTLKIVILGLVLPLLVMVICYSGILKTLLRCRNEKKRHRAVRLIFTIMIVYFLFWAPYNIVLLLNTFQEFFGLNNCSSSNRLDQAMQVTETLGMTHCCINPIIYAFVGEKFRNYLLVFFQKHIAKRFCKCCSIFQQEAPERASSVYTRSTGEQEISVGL
Sodium-dependent noradrenaline transporter, sequence (P23975 whole entry): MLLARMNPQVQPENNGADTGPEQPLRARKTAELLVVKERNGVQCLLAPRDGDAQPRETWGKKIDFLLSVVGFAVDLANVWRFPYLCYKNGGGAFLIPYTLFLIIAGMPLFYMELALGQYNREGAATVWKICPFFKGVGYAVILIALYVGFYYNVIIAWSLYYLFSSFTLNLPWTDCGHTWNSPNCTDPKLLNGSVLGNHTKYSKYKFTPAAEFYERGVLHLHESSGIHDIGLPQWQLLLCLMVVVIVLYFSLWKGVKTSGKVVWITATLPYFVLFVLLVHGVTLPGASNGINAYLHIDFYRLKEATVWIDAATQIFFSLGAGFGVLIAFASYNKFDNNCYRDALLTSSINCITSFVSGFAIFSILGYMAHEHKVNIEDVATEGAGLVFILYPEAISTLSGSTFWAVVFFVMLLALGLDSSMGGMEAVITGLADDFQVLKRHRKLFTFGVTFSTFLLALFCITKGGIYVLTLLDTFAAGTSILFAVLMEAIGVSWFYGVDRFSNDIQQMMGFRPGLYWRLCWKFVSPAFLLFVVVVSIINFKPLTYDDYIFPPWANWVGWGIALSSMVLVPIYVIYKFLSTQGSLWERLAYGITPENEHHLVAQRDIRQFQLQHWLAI

Row | Compound | IC50 [1] | IC50 [2] | IC50 ([3]; mdck) | IC50 (Estrogen receptor) | IC50 ([4]; cho-k1) | IC50 [5] | IC50 [6] | IC50 [7] | Ki [7] | IC50 ([3]; read-out: IC50) | Ki ([3]; read-out: Ki) | IC50 ([4]; read-out: IC50) | Ki ([4]; read-out: Ki)
1 | O=C(N[C@H](CO)[C@H](O)c1ccc([N+](=O)[O-])cc1)C(Cl)Cl [CHLORAMPHENICOL] | Not Active | Not Active | Not Active | Not Active | Not Active | Not Active | Not Active | Not Active | Not Active |  |  |  | 
2 | CCC1=C[C@@H]2CN(C1)Cc1c([nH]c3ccccc13)[C@@](C(=O)OC)(c1cc3c(cc1OC)N(C)[C@H]1[C@@](O)(C(=O)OC)[C@H](OC(C)=O)[C@]4(CC)C=CCN5CC[C@]31[C@@H]54)C2 [VINORELBINE] | Not Active | Not Active | Not Active | Not Active | Not Active | Not Active | Not Active | Not Active | Not Active |  |  |  | 
3 | CC(C(=O)O)c1cccc(C(=O)c2ccccc2)c1 (configuration not stated) [KETOPROFEN] | Not Active | Not Active | Not Active | Not Active | Not Active | Not Active | Not Active | Not Active | Not Active |  |  |  | 
4 | O=c1ccc2ccccc2o1 [COUMARIN] | Not Active | Not Active | Not Active | Not Active | Not Active | Not Active | Not Active | Not Active | Not Active |  |  |  | 
5 | CC1(C)O[C@@H]2C[C@H]3[C@@H]4C[C@H](F)C5=CC(=O)C=C[C@]5(C)[C@H]4[C@@H](O)C[C@]3(C)[C@]2(C(=O)CO)O1 [FLUNISOLIDE] | Not Active | Not Active | Not Active | Not Active | Not Active | Not Active | Not Active | Not Active | Not Active |  |  |  | 
6 | CC1(C)O[C@@H]2C[C@H]3[C@@H]4C[C@H](F)C5=CC(=O)C=C[C@]5(C)[C@@]4(F)[C@@H](O)C[C@]3(C)[C@]2(C(=O)CO)O1 [FLUOCINOLONE ACETONIDE] | Not Active | Not Active | Not Active | Not Active | Not Active | Not Active | Not Active | Not Active | Not Active |  |  |  | 
7 | N=C(Nc1ccccc1)Nc1ccccc1 | Not Active | Not Active |  | Not Active | Not Active | Not Active | Not Active | Not Active | Not Active | 1150 nM | 1140 nM |  | 
8 | CN1C(=O)COc2c(C(=O)NC3CN4CCC3CC4)cc(Cl)cc21 (configuration not stated) [AZASETRON] | Not Active | Not Active | Not Active | Not Active | Not Active | Not Active | Not Active | Not Active | Not Active |  |  |  | 
9 | O=NN(CCCl)C(=O)NCCCl [CARMUSTINE] | Not Active | Not Active | Not Active | Not Active | Not Active | Not Active | Not Active | Not Active | Not Active |  |  |  | 
10 | C[N+](C)(C)CCO.[Cl-] [CHOLINE CHLORIDE] | Not Active | Not Active | Not Active | Not Active | Not Active | Not Active | Not Active | Not Active | Not Active |  |  |  | 
11 | C[C@@]12C(=O)OC(=O)[C@]1(C)[C@H]1CC[C@@H]2O1 [CANTHARIDIN] | Not Active | Not Active | Not Active | Not Active | Not Active | Not Active | Not Active | Not Active | Not Active |  |  |  | 
12 | O=S(=O)([O-])CCS.[Na+] [MESNA] | Not Active | Not Active | Not Active | Not Active | Not Active | Not Active | Not Active | Not Active | Not Active |  |  |  | 
13 | CCN[C@@H]1C[C@H](N)[C@@H](O[C@H]2OC(CN)=CC[C@H]2N)[C@H](O)[C@H]1O[C@H]1OC[C@](C)(O)[C@H](NC)[C@H]1O [NETILMICIN] | Not Active | Not Active | Not Active | Not Active | Not Active | Not Active | Not Active | Not Active | Not Active |  |  |  | 
14 | C/C=C/C[C@@H](C)[C@@H](O)[C@H]1C(=O)N[C@@H](CC)C(=O)N(C)CC(=O)N(C)[C@@H](CC(C)C)C(=O)N[C@@H](C(C)C)C(=O)N(C)[C@@H](CC(C)C)C(=O)N[C@@H](C)C(=O)N[C@H](C)C(=O)N(C)[C@@H](CC(C)C)C(=O)N(C)[C@@H](CC(C)C)C(=O)N(C)[C@@H](C(C)C)C(=O)N1C [CYCLOSPORINE] | Not Active | Not Active | Not Active | Not Active | Not Active | Not Active | Not Active | Not Active | Not Active |  |  |  | 
15 | OC(CCN1CCCCC1)(c1ccccc1)C1CCCCC1 (configuration not stated) [TRIHEXYPHENIDYL] | Not Active | Not Active | Not Active | Not Active |  | Not Active | Not Active | Not Active | Not Active |  |  |  | 
16 | CN(C)c1ccc(C(=C2C=CC(=[N+](C)C)C=C2)c2ccc(N(C)C)cc2)cc1.[Cl-] [GENTIAN VIOLET] | Not Active |  | Not Active | Not Active |  | Not Active | Not Active | Not Active | Not Active |  |  | 1010 nM | 140 nM
17 | C[C@](O)(CS(=O)(=O)c1ccc(F)cc1)C(=O)Nc1ccc(C#N)c(C(F)(F)F)c1 [(R)-BICALUTAMIDE] | Not Active | Not Active |  | Not Active | Not Active | Not Active | Not Active | Not Active | Not Active |  |  |  | 
